# Measured values as given in patent publication US9993463B2, “Use of maleimide derivatives for preventing and treating cancer” (CENTOGENE AG, priority 2012, dated 2018).
# What was measured:
# [1] = tested on: purified bovine brain tubulin; assay: Tubulin polymerisation turbidity assay; type: biochemical; details: 1 μM, 340 nm, 37° C.; for shape of OD curve over time / effect on tubulin polymerization: 60 min, FIG. 5C, untreated control sigmoid
# Procedure: Purified bovine brain tubulin was used to measure tubulin-polymerisation by determining turbidity in tubulin samples incubated with compound of example 6 (PDA-66), paclitaxel or nocodazole (all 1 μM) and 0.6% DMSO in water as negative control. Optical density (OD) was measured after initiation of tubulin assembly at a wavelength of 340 nm continuously for 60 min in 1 min intervals at a temperature of 37° C. in a plate reader (Tecan, Mainz, Germany).
# [2] = tested on: lung carcinoma cells (A 549); assay: Cell proliferation assay (CASY, current exclusion), A549; type: cell-based; details: for proliferation relative to control: 72 h
# Procedure: (§1) Human neural progenitor cells ReNcell VM (Millipore, Schwalbach, Germany) were cultured on laminin-coated culture-vessels. Culture medium consisted of DMEM/F12 supplemented with B27 media supplement, GlutaMax™, gentamycin and heparin sodium salt and growth factors EGF (epidermal growth factor) and bFGF (basic fibroblast growth factor). The human neuroblastoma cell line SH-SY5Y was obtained from the German Resource Centre for Biological Material DSMZ (Braunschweig, Germany). Cells were cultivated in DMEM, supplemented with 10% FBS, 1% Penicillin-Streptomycin, 4 mM L-Glutamine. The human T cell leukemia cell line Jurkat was obtained from the German Resource Centre for Biological Material DSMZ (Braunschweig, Germany). Cells were cultivated in RPMI 1640 medium, supplemented with 10% FBS, 1% Penicillin-Streptomycin. The murine melanoma cell line B16F10 was obtained from the American Type Culture Collection (ATCC, Manassas, USA), Cells were cultivated in DMEM/GM medium supplemented with 10% FBS, 1% Penicillin-Streptomycin. The mammary gland/breast carcinoma cell line MCF-7 was obtained from American Type Culture Collection (ATCC, Manassas, USA) and cultivated according to standard proceedings in Eagle's Minimum Essential Medium (EMEM). The colon carcinoma cell line SW480 was obtained from American Type Culture Collection (ATCC, Manassas, USA) and cultivated according to standard proceedings in Leibovitz's L15 Medium. The lung carcinoma cell line A549 was obtained from American Type Culture Collection (ATCC, Manassas, USA) and cultivated according to standard proceedings in F-12K Medium (Kaighn's Modification of Ham's F-12 Medium). […]
# (§2) Cell proliferation and vitality were measured with a CASY Model TT (Roche, Mannheim, Germany) by electrical current exclusion method. […]
# (§3) In a further experiment further cancer cells were treated with compound of example 2.6 (PDA-66) with a concentration of 3 μM or 10 μM for 72 h and cell number was evaluated using the current exclusion method as described above.
# [3] = tested on: human neuroblastoma cells (SH5Y5); assay: Cell proliferation assay (CASY, current exclusion), SH5Y5; type: cell-based; details: SH5Y5, 3 μM, 72 h, FIG. 2
# Procedure: (§4) Human neural progenitor cells ReNcell VM (Millipore, Schwalbach, Germany) were cultured on laminin-coated culture-vessels. Culture medium consisted of DMEM/F12 supplemented with B27 media supplement, GlutaMax™, gentamycin and heparin sodium salt and growth factors EGF (epidermal growth factor) and bFGF (basic fibroblast growth factor). The human neuroblastoma cell line SH-SY5Y was obtained from the German Resource Centre for Biological Material DSMZ (Braunschweig, Germany). Cells were cultivated in DMEM, supplemented with 10% FBS, 1% Penicillin-Streptomycin, 4 mM L-Glutamine. The human T cell leukemia cell line Jurkat was obtained from the German Resource Centre for Biological Material DSMZ (Braunschweig, Germany). Cells were cultivated in RPMI 1640 medium, supplemented with 10% FBS, 1% Penicillin-Streptomycin. The murine melanoma cell line B16F10 was obtained from the American Type Culture Collection (ATCC, Manassas, USA), Cells were cultivated in DMEM/GM medium supplemented with 10% FBS, 1% Penicillin-Streptomycin. […]
# as §2
# (§5) 5.2 Furthermore cancer cells were treated with compound of example 2.6 (PDA-66) with a concentration of 3 μM for 72 h and cell number was evaluated using the current exclusion method as described above.
# [4] = tested on: liver carcinoma cells (HepG2); assay: Cell proliferation assay (CASY, current exclusion), HepG2; type: cell-based; details: 72 h
# Procedure: as §4, §2, §3
# [5] = tested on: MCF-7 cells (mammary gland/breast carcinoma); assay: Cell proliferation assay (CASY, current exclusion), MCF-7; type: cell-based; details: mamma carcinoma cells (printed MCF-1), 72 h
# Procedure: as §4, §2, §3
# [6] = tested on: human neuronal progenitor cells (hNPCs, ReNcell VM); assay: Cell proliferation and vitality assay (CASY, current exclusion), hNPCs; type: cell-based; details: for proliferation relative to control: 72 h
# Procedure: (§6) Human neural progenitor cells ReNcell VM (Millipore, Schwalbach, Germany) were cultured on laminin-coated culture-vessels. Culture medium consisted of DMEM/F12 supplemented with B27 media supplement, GlutaMax™, gentamycin and heparin sodium salt and growth factors EGF (epidermal growth factor) and bFGF (basic fibroblast growth factor). The human neuroblastoma cell line SH-SY5Y was obtained from the German Resource Centre for Biological Material DSMZ (Braunschweig, Germany). Cells were cultivated in DMEM, supplemented with 10% FBS, 1% Penicillin-Streptomycin, 4 mM L-Glutamine. The human T cell leukemia cell line Jurkat was obtained from the German Resource Centre for Biological Material DSMZ (Braunschweig, Germany). Cells were cultivated in RPMI 1640 medium, supplemented with 10% FBS, 1% Penicillin-Streptomycin. The murine melanoma cell line B16F10 was obtained from the American Type Culture Collection (ATCC, Manassas, USA), Cells were cultivated in DMEM/GM medium supplemented with 10% FBS, 1% Penicillin-Streptomycin. The mammary gland/breast carcinoma cell line MCF-7 was obtained from American Type Culture Collection (ATCC, Manassas, USA) and cultivated according to standard proceedings in Eagle's Minimum Essential Medium (EMEM). The colon carcinoma cell line SW480 was obtained from American Type Culture Collection (ATCC, Manassas, USA) and cultivated according to standard proceedings in Leibovitz's L15 Medium. The lung carcinoma cell line A549 was obtained from American Type Culture Collection (ATCC, Manassas, USA) and cultivated according to standard proceedings in F-12K Medium (Kaighn's Modification of Ham's F-12 Medium). The liver carcinoma cell line Hep G2 was obtained from American Type Culture Collection (ATCC, Manassas, USA) and cultivated according to standard proceedings in Eagle's Minimum Essential Medium (EMEM).
# (§7) Cell proliferation and vitality were measured with a CASY Model TT (Roche, Mannheim, Germany) by electrical current exclusion method. Cells were seeded in defined numbers into 48-well-plates and proliferated for 24 h. Subsequently fresh medium was applied containing compounds or DMSO, in the following referred as control.
# 5.1 Cytotoxic effects were evaluated using human fetal cells immortalized by transfection with the oncogen v-myc (Donato et al., Differential development of neuronal physiological responsiveness in two human neural stem cell lines. BMC Neurosci.; 8, 2007), also referred to herein as human neuronal progenitor cells, hNPCs, or ReNcell VM, providing a sensitive screening system and cancer cells, namely SH5Y5, Jurkat and B16F10 cells. Cytotoxic effects were measured by comparison of cells numbers of DMSO treated cells (control) and cell numbers of cells treated with compound of above mentioned example 2.6 (PDA66). Cell proliferation and vitality was measured with a CASY Model TT (Roche, Mannheim, Germany) by electrical current exclusion method. Cells were seeded in defined numbers into 48-well-plates and proliferated for 24 h: Subsequently fresh medium was applied containing compound of example 6 (3 μM) (PDA-66) or DMSO, in the following referred as control. Cell number and cell vitality was measured after 72 h.
# [7] = tested on: apoptotic cells (AnnexinV/PI); assay: AnnexinV/PI apoptosis detection (FACS); type: cell-based; details: FIG. 3
# Procedure: To determine the amount of apoptotic and necrotic cells a FITC AnnexinV Apoptosis Detection Kit I was used. For FACS analysis, cells were trypsinised and centrifuged at 100×g at RT for 5 min and washed with PBS without Ca2^+ and Mg^2+. Annexin V and propidium iodide (PI) were added accordingly to the manufacture's instructions. After 15 min incubation at room temperature on a shaker in the dark, the measurement was done by using FACSCalibur (Becton Dickinson, San Jose, USA) in combination with Cell Quest Pro software.
# human immortalized cells = assay: Mitotic arrest in G2/M phase of cell cycle; type: cell-based; details: after 16 h (highest amount), control 17.4±2.3%
# Excerpt: As a measure the increase in cells with double DNA content was used, where at all points in time the amount of treated cells was higher in comparison to untreated cells.
# [8] = tested on: human T cell leukemia (Jurkat) cells; assay: Cell proliferation assay (CASY, current exclusion), Jurkat; type: cell-based; details: 72 h
# Procedure: as §1, with “Medium.” for “Medium. The lung carcinoma cell line A549 was obtained from American Type Culture Collection (ATCC, Manassas, USA) and cultivated according to standard proceedings in F-12K Medium (Kaighn's Modification of Ham's F-12 Medium).”
# as §2, §5, §3
# [9] = tested on: murine melanoma cells (B16F10); assay: Cell proliferation assay (CASY, current exclusion), B16F10; type: cell-based
# Procedure: as §6, §7, §5, §3
# [10] = tested on: colon carcinoma cells (SW480); assay: Cell proliferation assay (CASY, current exclusion), SW480; type: cell-based; details: 72 h
# Procedure: as §4, §2, §3
# bovine neuronal tubulin = assay: VEC-DIC microscopy of tubulin polymerization; type: biochemical; details: tubulin 2 mg/ml, 37° C., 1 h, FIG. 5A, B
# Procedure: In order to evaluate interference with tubulin polymerisation bovine neuronal tubulin was used, diluted in BRB80 buffer (80 mM PIPES, pH 6.8; MgCl2 1 mM; EGTA 1 mM) at a concentration of 2 mg/ml. After addition of 0.5 mM GTP and 10% DMSO, initiating tubulin polymerisation, the solution samples were incubated at 37° C. in the presence of compound of example 6 (PDA-66). After 1 h the samples were analysed by using video enhanced contrast differential interference contrast (VEC-DIC) microscopy.
compound,measurement,setting,value
"CC(=O)c1ccc(C2=C(c3c(C)[nH]c4ccccc34)C(=O)N(C)C2=O)cc1 [PDA-66, 3-(4-Acetylphenyl)-1-methyl-4-(2-methyl-1H-indol-3-yl)-1H-pyrrole-2,5-dione]",maximal OD after 60 min,[1],1.04 rel. units
same,shape of OD curve over time / effect on tubulin polymerization,[1],destabilized tubulin in a way comparable to nocodazole
same,proliferation relative to control,"[2]; A 549, 3 μM",57.1±9.2%
same,proliferation relative to control,"[2]; A 549, 10 μM",65.7±8.0%
same,IC50,"[2]; Homo sapiens, A549 cells",8980 nM
same,cell numbers versus control,[3],reduced or attenuated significantly
same,proliferation relative to control,"[4]; HepG2, 3 μM",74.8±6.3%
same,proliferation relative to control,"[4]; HepG2, 10 μM",47.2±3.8%
same,proliferation relative to control,[5]; 3 μM,43.0±2.8%
same,proliferation relative to control,[5]; 10 μM,38.3±11.8%
same,proliferation relative to control,[6]; 3 μM,3.6±1.2%
same,number of vital cells (vitality) versus control,"[6]; 3 μM, FIG. 1 right panel",significantly lower
same,proliferation of immortalized cells (cell number) versus control,"[6]; 3 μM, up to 72 h, FIG. 1 left panel",no proliferation
same,proliferation relative to control,[6]; 10 μM,0.9±0.2%
same,effect of concentration on proliferation of immortalized cells,[6]; FIG. 6,dose-dependent effect
same,IC50,"[6]; Homo sapiens, ReNcell VM",532 nM
same,apoptotic cells (AnnexinV+/PI− and AnnexinV+/PI+),[7],increase of apoptotic cells
same,amount of cells in G2/M phase of cell cycle,human immortalized cells,68.9±10.3%
same,proliferation relative to control,[8]; 3 μM,18.2±2.2%
same,cell numbers versus control,"[8]; 3 μM, FIG. 2",reduced or attenuated significantly
same,proliferation relative to control,[8]; 10 μM,31.9±5.9%
same,proliferation relative to control,"[9]; B16F10, 3 μM, 72 h",7.2±1.3%
same,cell numbers versus control,"[9]; B16F10, 3 μM, 72 h, FIG. 2",reduced or attenuated significantly
same,proliferation relative to control,"[9]; B16F10, at 10 (unit not given), 72 h",8.3±2.6%
same,IC50,"[9]; Mus musculus, B16-F10, B16F10 cells",1070 nM
same,proliferation relative to control,"[10]; SW480, 3 μM",61.3±0.6%
same,proliferation relative to control,"[10]; SW480, 10 μM",56.6±6.6%
same,microtubule (MT) polymerization by VEC-DIC microscopy,bovine neuronal tubulin,hindered the MT-polymerization
COC(=O)Nc1nc2ccc(C(=O)c3cccs3)cc2[nH]1 [nocodazole],maximal OD after 60 min,[1],1.01 rel. units
same,shape of OD curve over time / effect on tubulin polymerization,[1],nearly linear curve
CC(=O)O[C@H]1C(=O)[C@@]2(C)[C@H]([C@H](OC(=O)c3ccccc3)[C@]3(O)C[C@H](OC(=O)[C@H](O)[C@@H](NC(=O)c4ccccc4)c4ccccc4)C(C)=C1C3(C)C)[C@]1(OC(C)=O)CO[C@@H]1C[C@@H]2O [paclitaxel],maximal OD after 60 min,[1],1.18 rel. units
same,shape of OD curve over time / effect on tubulin polymerization,[1],comparable shape but with a steeper slope
